The nature of series [1]: Serum and cerebrospinal fluid bromide concentrations in the sheep trial. The format is in vivo. The following applies: intoxicated sheep. The procedure:
Venous blood samples collected for biochemical analysis and haematocrit (PCV), and urine for USG, at three specific time points during the experiment for all animals: 1) on entry to the trial; 2) on date of entry to the end of trial protocol and, 3) on day of necropsy.
A full clinical examination was performed prior to euthanasia. At euthanasia, 100 I.U. heparin (Provet Riverina Pty Ltd) was injected into the jugular vein, followed shortly by Lethabarb (20 mL/40 kg LW). Immediately after euthanasia, the ventral articulation of C1 was exposed and cerebrospinal fluid (CSF) collected using a 23 g needle. The head was then removed and subjected to perfusion fixation. Briefly, the carotid arteries were exposed and a small catheter inserted and ligated to secure the perfusion lines. Two liters of 0.1% phosphate buffered saline (PBS) containing 3000 I.U of heparin/L was then slowly perfused via the ligated vessels at a pressure of 90 mm Hg using a Microgon peristaltic Pump (Microgon, Laguna Hills, Calif.). Once complete this was replaced with 4% paraformaldehyde (Sigma-Alrich) in 0.1% PBS and a further two liters allowed to perfuse slowly through the tissues of the head. Once complete, catheters were removed and the whole head placed at 4° C. overnight to complete fixation. Twenty-four hours post perfusion fixation the brain was removed from the skull and placed in 10% formal saline for storage until dissection for processing to wax sections.
Absorbance was measured with a spectrophotometer at 440 nm. […] The lower limit of quantification (LOQ) was 25 μg/mL.

The subject of another series is lolitrem B intoxication. Nature of the series: KBr pre-treatment in rodent model of PRGT (lolitrem B injection), tremor analysis and novel arena test. The format is in vivo, mice. The procedure:
Mice were administered 2500 ppm KBr in their drinking water for 7 days prior to injection with lolitrem B (2 mg/kg IP).

The mark [2] stands for this setting: 2500 ppm KBr in drinking water 7 days prior to lolitrem B 2 mg/kg IP, one hour post injection.
The mark [3] stands for this setting: 2500 ppm KBr in drinking water 7 days, 3.5 hours post lolitrem B 2 mg/kg IP.

Molecules are shown by their SMILES.

This note sets out measurements from patent US9913858B2, “Prevention and treatment of toxicosis” (priority 2013, dated 2018).

Take `[Br-].[K+]` [potassium bromide]: in series [1] (6 hours after oral 300 mg/kg potassium bromide, n=3), the “mean serum bromide concentration” value came out at 899.43 µg/mL. In addition, the “final mean serum bromide concentration” value in series [1] (48 hours after oral 300 mg/kg potassium bromide, n=6) came out at 804.34 µg/mL. For the same compound, in the series on lolitrem B intoxication (setting [2]), the peak tremor frequency entry is listed as “reduced” and the “tremor to movement ratio” value is recorded as “reduced”. In the series on lolitrem B intoxication (setting [3]), the “movement in novel arena test” value was “increased” and the “time freezing in novel arena test” value is “reduce”.
